# Values of other authors, collected in US20250255804A1, “LIQUID INJECTABLE COMPOSITIONS OF LURBINECTEDIN” (DR. REDDY’S LABORATORIES LIMITED, priority 2024, published 2025).
# Conditions: solubility increases at acidic pH
compound,measurement,value
"COc1ccc2[nH]c3c(c2c1)CCN[C@]31CS[C@@H]2c3c(OC(C)=O)c(C)c4c(c3[C@H](COC1=O)N1[C@@H]2[C@H]2c3c(cc(C)c(OC)c3O)C[C@@H]([C@@H]1O)N2C)OCO4 [lurbinectedin, Lurbinectedin]",solubility in water,insoluble or practically insoluble in water
